Source: patent US20100285146A1, “PEPTIDES AND METHODS FOR THE TREATMENT OF SYSTEMIC LUPUS ERYTHEMATOSUS” (priority 2007, published 2010)
No end group written: not given here.

Assays:
[1] = tested on: C72 murine anti-DNA antibody; assay: Anti-peptide direct binding ELISA with C72; conditions: for C72 Binding: direct binding ELISA, footnote: O.D. after one (1) hour; for binding of C72 murine anti-DNA antibody to laminin peptides (FIG. 1): ELISA, C72 conditioned medium in various dilutions
Experimental: (§1) Wells were coated with 10 μg/ml of the peptides, blocked with 1% BSA (bovine serum albumin) in PBS (pH 7.4), reacted with appropriately diluted plasma or monoclonal antibodies, incubated with anti-human or anti-mouse immunoglobulin enzyme conjugated to alkaline phosphatase and detected by addition of substrate (Sigma 100 Phosphatase Substrate Tablets) and color development using an Organon Teknika Microwell System spectrometer at wavelength of 405 nm.
The interaction of the C72 murine anti-DNA antibody with laminin peptides was analyzed by ELISA as described above. The C72 conditioned medium was diluted in PBS in various dilutions.
(§2) The peptides of the present invention were tested for their ability to bind directly with C72 murine anti-DNA antibodies and B3 human anti-DNA antibodies according to the method described hereinabove.

[2] = tested on: B3 human anti-DNA antibodies; assay: Anti-peptide direct binding ELISA with B3; conditions: direct binding ELISA; footnote: O.D. after two (2) hours
Experimental: as §1
The human monoclonal anti-DNA antibodies DIL 6 and B3 were derived from lupus patients by the hybridoma technique. […] In FIGS. 3 and 4, the peptides are referred to as denoted above or as follows; AS30 is R27, AS19 is R35, AS35 is R26, AS17 is R28 and AS6 is R18.
as §2

C72 anti-DNA antibody = assay: Competitive inhibition of C72 binding to R38 (5100); design: species or system murine; conditions: concentration of competitive inhibitor giving 50% inhibition, ELISA
Excerpt: A competitive inhibition study compared how each of the peptides competes with R38 (5100) for binding to the C72 anti-DNA antibody. Conducted according to the methods described hereinabove, the results of the study are disclosed in Table 4 below and are further elucidated by reference to FIG. 10.

[3] = target: C72 murine anti-DNA antibody; assay: competitive inhibition ELISA: peptide in solution against binding of C72 to coated 5100

| Molecule | C72 Binding [1] | B3 Binding [2] | 50% Inhibition of C72 binding to mouse R38 (5100) (C72 anti-DNA antibody) | binding of C72 murine anti-DNA antibody to laminin peptides (FIG. 1) [1] | IC50 [3] |
| --- | --- | --- | --- | --- | --- |
| KEGYKVELDLNITLEFETTSK [Peptide 5105] | 0.07 O.D. | 0.02 O.D. | – | – | – |
| LDLNITEFRTTSK [Peptide 5103] | 0.03 O.D. | 0.02 O.D. | – | – | – |
| CC[C@H](C)[C@H](NC(=O)[C@H](CC(N)=O)NC(=O)[C@H](CC(C)C)NC(=O)[C@H](CC(=O)O)NC(=O)[C@H](CC(C)C)NC(=O)[C@H](CCCNC(=N)N)NC(=O)[C@@H](NC(=O)[C@H](CCCCN)NC(=O)[C@H](Cc1ccc(O)cc1)NC(=O)CNC(=O)[C@H](CCC(=O)O)NC(=O)[C@@H](N)CCCCN)C(C)C)C(=O)N[C@H](C(=O)N[C@@H](CC(C)C)C(=O)N[C@@H](CCC(=O)O)C(=O)N[C@@H](Cc1ccccc1)C(=O)N[C@@H](CCC(=O)O)C(=O)N[C@H](C(=O)N[C@H](C(=O)N[C@@H](CO)C(=O)N[C@@H](CCCCN)C(=O)O)[C@@H](C)O)[C@@H](C)O)[C@@H](C)O [Peptide 5107] | 0.05 O.D. | 0.01 O.D. | 85 µg/mL | – | – |
| KEGYKVRLALNITLEFRTTSK [Peptide 5109] | 2.72 O.D. | 1.94 O.D. | 0.7 µg/mL | – | – |
| KQNCLSSRASFRGCVRNLRLSR [Peptide R30, laminin derived peptide, residues 3011-3032] | 0.75 O.D. | – | – | binding | – |
| KEGYKVRLDLNITLAFRTTSK [Peptide 5110] | 2.8 O.D. | 1.83 O.D. | 0.7 µg/mL | – | – |
| KATPMLKMRTSFHGCIK [Peptide R37, laminin derived peptide, residues 2615-2631] | 1.8 O.D. | – | – | binding | – |
| DGKWHTVKTEYIKRKAF [Peptide R28, laminin derived peptide, residues 2779-2795] | 0.01 O.D. | – | – | – | – |
| VRLDLNITLEFR [Peptide 5102] | 0.1 O.D. | 0.02 O.D. | 30 µg/mL | – | – |
| VQSDVNITLEFR [Peptide 5111] | 0.01 O.D. | 0.01 O.D. | – | – | – |
| KEGYKVELDLNITLEFRTTSK [Peptide 5106] | 1.9 O.D. | 0.16 O.D. | 2.5 µg/mL | – | – |
| KEGYKVRLDLNITLEF [Peptide 5101] | 1.11 O.D. | 0.1 O.D. | 5 µg/mL | – | – |
| AEGYAVALDLNITLEFATTSA [Peptide 5104] | 0.06 O.D. | 0.02 O.D. | – | – | – |
| KEGYKVQSDVNITLEFRTSSQ [5300 peptide, human R38] | – | – | – | – | 85 µg/mL |
| KEGYKVRLDLNITLEFRTTSK [R38 peptide (5100), mouse R38] | – | – | – | – | 10 µg/mL |
| KAGYKVRLALNITLAFRTTSK [5108 peptide (Ala subst. of 5100 at all negative a.a.)] | – | – | – | – | 2 µg/mL |
| KEGYKVRLDLNITLEFETTSK [5107 peptide (charge subst. to neg. at 5100 a.a. 17)] | – | – | – | – | 85 µg/mL |
| VRLDLNITLEFR [5102 peptide (Res. 6-17 of 5100)] | – | – | – | – | 30 µg/mL |
| KEGYKVRLDLNITLEF [5101 peptide (Res. 1-16 of 5100)] | – | – | – | – | 5 µg/mL |
| KEGYKVRLDLNITLAFRTTSK [5110 peptide (Ala subst. of 5100 a.a. 15)] | – | – | – | – | 0.7 µg/mL |
| KEGYKVRLDLNTTLEFRTTSK [5200 peptide (R38′), mouse R38 analog] | – | – | – | – | 10 µg/mL |
| KEGYKVRLALNITLEFRTTSK [5109 peptide (Ala subst. of 5100 a.a. 9)] | – | – | – | – | 0.7 µg/mL |
| KEGYKVELDLNITLEFRTTSK [5106 peptide (charge subst. to neg. at 5100 a.a. 7)] | – | – | – | – | 2.5 µg/mL |
